Reference: ChEMBL document CHEMBL1201862, “PubChem BioAssay data set” (2004)
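Exposure lasted 48 hours, with cells grown in 96-well plates and compounds tested at five concentrations. GI50 marks 50% less growth.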 Active and inactive are the calls of the source. Rule as the data show it: active = GI50 up to about 1.1 µM and inactive = higher.

What was measured:
Assay in all cases: DTP human tumour cell line panel, 48 h
SF-295 = tested on: SF-295
786-0 = tested on: 786-0
HOP-62 = tested on: HOP-62
RXF 631 = tested on: RXF 631
SK-OV-3 = tested on: SK-OV-3
OVCAR-8 = tested on: OVCAR-8
IGROV-1 = tested on: IGROV-1
SK-MEL-28 = tested on: SK-MEL-28
UACC-257 = tested on: UACC-257
SNB-78 = tested on: SNB-78
RXF 393 = tested on: RXF 393
ACHN = tested on: ACHN
SNB-75 = tested on: SNB-75
HOP-18 = tested on: HOP-18
UACC-62 = tested on: UACC-62
XF498 = tested on: XF498
SF-268 = tested on: SF-268
HCT-116 = tested on: HCT-116
OVCAR-4 = tested on: OVCAR-4
NCI-H23 = tested on: NCI-H23
NCI-H460 = tested on: NCI-H460
SK-MEL-2 = tested on: SK-MEL-2
DMS-114 = tested on: DMS-114
KM-20L2 = tested on: KM-20L2
SW-620 = tested on: SW-620
EKVX = tested on: EKVX
HCC 2998 = tested on: HCC 2998
RPMI-8226 = tested on: RPMI-8226
U-251 = tested on: U-251
KM12 = tested on: KM12
UO-31 = tested on: UO-31
SF-539 = tested on: SF-539
SK-MEL-5 = tested on: SK-MEL-5
M14 = tested on: M14
LXFL 529 = tested on: LXFL 529
A498 = tested on: A498
DLD-1 = tested on: DLD-1
K562 = tested on: K562
M19-MEL = tested on: M19-MEL
CCRF-CEM = tested on: CCRF-CEM
HCT-15 = tested on: HCT-15
DMS-273 = tested on: DMS-273
HT-29 = tested on: HT-29
CAKI-1 = tested on: CAKI-1
MOLT-4 = tested on: MOLT-4
COLO 205 = tested on: COLO 205
TK-10 = tested on: TK-10
SNB-19 = tested on: SNB-19
NCI-H522 = tested on: NCI-H522
Malme-3M = tested on: Malme-3M
SN12C = tested on: SN12C
HL-60 = tested on: HL-60
OVCAR-3 = tested on: OVCAR-3
A549 = tested on: A549
NCI-H226 = tested on: NCI-H226
HOP-92 = tested on: HOP-92
OVCAR-5 = tested on: OVCAR-5

Structure (SMILES): O/N=C1/C(=C/c2ccc(Cl)cc2)CCCC1C(NO)c1ccc(Cl)cc1 (centres undefined)
- GI50 (SF-295): 18.9 µM (inactive)
- GI50 (786-0): 20.7 µM (inactive)
- GI50 (HOP-62): 22.8 µM (inactive)
- GI50 (RXF 631): 18.1 µM (inactive)
- GI50 (SK-OV-3): 50.8 µM (inactive)
- GI50 (OVCAR-8): 21.1 µM (inactive)
- GI50 (IGROV-1): 38.2 µM (inactive)
- GI50 (SK-MEL-28): 5.6 µM (inactive)
- GI50 (UACC-257): 17.2 µM (inactive)
- GI50 (SNB-78): 21.9 µM (inactive)
- GI50 (RXF 393): 12 µM (inactive)
- GI50 (ACHN): 31.5 µM (inactive)
- GI50 (SNB-75): 12.6 µM (inactive)
- GI50 (HOP-18): 20.3 µM (inactive)
- GI50 (UACC-62): 29 µM (inactive)
- GI50 (XF498): 22.5 µM (inactive)
- GI50 (SF-268): 15.9 µM (inactive)
- GI50 (HCT-116): 23.9 µM (inactive)
- GI50 (OVCAR-4): 15.6 µM (inactive)
- GI50 (NCI-H23): 20 µM (inactive)
- GI50 (NCI-H460): 17.3 µM (inactive)
- GI50 (SK-MEL-2): 27.1 µM (inactive)
- GI50 (DMS-114): 24.5 µM (inactive)
- GI50 (KM-20L2): 17.6 µM (inactive)
- GI50 (SW-620): 30.2 µM (inactive)
- GI50 (EKVX): 30.1 µM (inactive)
- GI50 (HCC 2998): 15.5 µM (inactive)
- GI50 (RPMI-8226): 20.9 µM (inactive)
- GI50 (U-251): 20.7 µM (inactive)
- GI50 (KM12): 19.9 µM (inactive)
- GI50 (UO-31): 16.6 µM (inactive)
- GI50 (SF-539): 25.2 µM (inactive)
- GI50 (SK-MEL-5): 22.7 µM (inactive)
- GI50 (M14): 16.2 µM (inactive)
- GI50 (LXFL 529): 25.3 µM (inactive)
- GI50 (A498): 18.1 µM (inactive)
- GI50 (DLD-1): 26.5 µM (inactive)
- GI50 (K562): 24.4 µM (inactive)
- GI50 (M19-MEL): 22.9 µM (inactive)
- GI50 (CCRF-CEM): 19.1 µM (inactive)
- GI50 (HCT-15): 19.1 µM
- GI50 (DMS-273): 17.8 µM (inactive)
- GI50 (HT-29): 19.2 µM (inactive)
- GI50 (CAKI-1): 23.7 µM (inactive)
- GI50 (MOLT-4): 14.7 µM (inactive)
- GI50 (COLO 205): 20.7 µM (inactive)
- GI50 (TK-10): 31.7 µM (inactive)
- GI50 (SNB-19): 24.2 µM (inactive)
- GI50 (NCI-H522): 20.3 µM (inactive)
- GI50 (Malme-3M): 26.7 µM (inactive)
- GI50 (SN12C): 19.3 µM (inactive)
- GI50 (HL-60): 18.5 µM (inactive)
- GI50 (OVCAR-3): 16.8 µM (inactive)
- GI50 (A549): 20.3 µM (inactive)

Structure (SMILES): C=CCNC1=NC(=O)C(CC(=O)Nc2ccc([N+](=O)[O-])cc2[N+](=O)[O-])S1 (centres undefined)
- GI50 (SF-295): > 100 µM (inactive)
- GI50 (786-0): > 100 µM (inactive)
- GI50 (HOP-62): > 100 µM (inactive)
- GI50 (RXF 631): > 100 µM (inactive)
- GI50 (SK-OV-3): > 100 µM (inactive)
- GI50 (OVCAR-8): > 100 µM (inactive)
- GI50 (IGROV-1): > 100 µM (inactive)
- GI50 (SK-MEL-28): > 100 µM (inactive)
- GI50 (UACC-257): > 100 µM (inactive)
- GI50 (SNB-78): > 100 µM (inactive)
- GI50 (RXF 393): > 100 µM (inactive)
- GI50 (ACHN): 90.6 µM (inactive)
- GI50 (SNB-75): 66.5 µM (inactive)
- GI50 (HOP-18): > 100 µM (inactive)
- GI50 (UACC-62): > 100 µM (inactive)
- GI50 (XF498): > 100 µM (inactive)
- GI50 (SF-268): > 100 µM (inactive)
- GI50 (HCT-116): > 100 µM (inactive)
- GI50 (OVCAR-4): 95.7 µM (inactive)
- GI50 (NCI-H23): > 100 µM (inactive)
- GI50 (NCI-H460): > 100 µM (inactive)
- GI50 (SK-MEL-2): > 100 µM (inactive)
- GI50 (DMS-114): 66.5 µM (inactive)
- GI50 (KM-20L2): > 100 µM (inactive)
- GI50 (SW-620): > 100 µM (inactive)
- GI50 (EKVX): > 100 µM (inactive)
- GI50 (HCC 2998): > 100 µM (inactive)
- GI50 (U-251): > 100 µM (inactive)
- GI50 (KM12): > 100 µM (inactive)
- GI50 (UO-31): 84.5 µM (inactive)
- GI50 (SF-539): > 100 µM (inactive)
- GI50 (SK-MEL-5): > 100 µM (inactive)
- GI50 (NCI-H226): > 100 µM (inactive)
- GI50 (M14): > 100 µM (inactive)
- GI50 (HOP-92): 85.7 µM (inactive)
- GI50 (LXFL 529): > 100 µM (inactive)
- GI50 (A498): > 100 µM (inactive)
- GI50 (DLD-1): > 100 µM (inactive)
- GI50 (M19-MEL): > 100 µM (inactive)
- GI50 (CCRF-CEM): > 100 µM (inactive)
- GI50 (HCT-15): > 100 µM
- GI50 (DMS-273): > 100 µM (inactive)
- GI50 (HT-29): > 100 µM (inactive)
- GI50 (CAKI-1): 83.8 µM (inactive)
- GI50 (MOLT-4): > 100 µM (inactive)
- GI50 (COLO 205): > 100 µM (inactive)
- GI50 (TK-10): 98.6 µM (inactive)
- GI50 (SNB-19): > 100 µM (inactive)
- GI50 (NCI-H522): > 100 µM (inactive)
- GI50 (Malme-3M): > 100 µM (inactive)
- GI50 (SN12C): > 100 µM (inactive)
- GI50 (HL-60): 52.5 µM (inactive)
- GI50 (OVCAR-3): > 100 µM (inactive)
- GI50 (A549): > 100 µM (inactive)
- GI50 (OVCAR-5): > 100 µM (inactive)
